Reference: patent US20260055088A1, “HETEROCYCLIC COMPOUND, METHOD FOR PREPARING SAME, AND PHARMACEUTICAL USE THEREOF” (Jiangsu Hengrui Pharmaceuticals Co., Ltd., priority 2022, published 2026)
Where “and” joins values, the source holds several entries; their conditions need not be identical. Equal entries are not always repeated. Where two headings read alike, the source gives them in different places.

How the values were obtained:
[1] = Pharmacokinetic evaluation in C57 mice (i.g./i.v.); assay type: in vivo; conditions: for Vd / AUC(0-t) / half-life / Cmax / bioavailability / CL/F: both sexes, mouse, plasma; for Vd: read-out: Apparent distribution volume Vss; for AUC(0-t): read-out: Area under curve AUC0-t; for half-life: read-out: Half-life T½ (converted); for Cmax: read-out: Plasma concentration Cmax; for bioavailability: oral, i.g. 2.0 mg/kg vs i.v. 1.0 mg/kg, read-out: Bioavailability F; for CL/F: read-out: Clearance rate CL/F; for Clearance rate CL/F: i.v.
Description: C57 mice were used as test animals. After intragastric (i.g.)/intravenous (i.v.) administration of the compounds of the present disclosure to C57 mice, the plasma concentrations of the compounds at different time points were determined by the LC/MS/MS method. The pharmacokinetic behaviors of the compounds of the present disclosure in C57 mice were studied, and their pharmacokinetic profiles were evaluated.
Compound 16 and compound 32.
Thirty-six C57 mice, with an equal number of males and females, provided by Vital River Laboratory Animal Technology Co., Ltd., with the production licenses SCXK (Zhejiang) 2019-0001 and SCXK (Beijing) 2019-0006. The mice were evenly divided into 4 groups of 9, with 3 mice per time point per group, and dosed by intragastric and intravenous administration.
Certain amounts of the test compounds were weighed out, and 5% DMSO+5% tween 80+90% normal saline was added to prepare 0.1 mg/mL colorless clear solutions (for the intragastric administration groups) and 0.1 mg/mL colorless clear solutions (for the intravenous administration groups).
The intragastric administration groups: The administration dose was 2.0 mg/kg, and the administration volume was 20 mL/kg.
The intravenous administration groups: The administration dose was 1.0 mg/kg, and the administration volume was 10 mL/kg.
The intragastric administration groups: 0.1-mL blood samples were collected from the orbit before administration and 0.25, 0.5, 1.0, 2.0, 4.0, 6.0, 8.0, 11.0, and 24.0 h after administration, placed into EDTA-K2 anticoagulation test tubes, and centrifuged at 10,000 rpm for 1 min (4° C.), and the plasma was separated within 1 h and stored at −80° C. before analysis. The procedures from the blood collection to the centrifugation were performed under ice-bath conditions.
The intravenous administration groups: Blood samples were collected before administration and 5 min and 0.25, 0.5, 1.0, 2.0, 4.0, 8.0, 11.0, and 24 h after administration and were treated in the same way as those collected from the intragastric administration groups.
Determination of the plasma concentrations of the test compounds in C57 mice after the compounds were administered at different concentrations: Compound 16: A 20-μL sample of the C57 mouse plasma collected at each time point after administration was taken, and 200 μL of acetonitrile containing 100 ng/mL camptothecin (internal standard) was added to each sample to precipitate protein. The mixture was vortexed for 5 min and centrifuged at 3700 rpm for 10 min. 50 μL of the supernatant was taken, and 100 μL of water was added. The mixture was vortexed for 5 min, and 1 μL of the mixture was taken for LC/MS/MS analysis. Compound 32: A 20-μL sample of the C57 mouse plasma collected at each time point after administration was taken, and 200 μL of acetonitrile containing verapamil (internal standard, 20 ng/mL) was added to each sample to precipitate protein. The mixture was vortexed for 5 min and centrifuged at 3700 rpm for 10 min. 90 μL of the supernatant was taken, and 90 μL of water was added. The mixture was vortexed for 5 min, and 0.1 μL of the mixture was taken for LC/MS/MS analysis.

rat incision pain model = assay: Analgesic efficacy in rat incision pain model (mechanical pain threshold); assay type: in vivo, SD rats; conditions: i.g./one dose; for Pain threshold: rat incision pain model, 5 h after administration; for Percent increase in threshold: vs. vehicle control
Description: To evaluate the analgesic efficacy of the compounds of the present disclosure in inhibiting pain in rats of a rat incision pain model.
The compounds of Example 16 and Example 32.
Test animals: SD rats, purchased from Beijing Vital River Laboratory Animal Technology Co., Ltd. (license number: SCXK (Zhejiang) 2019-0001), weighing about 180 g on purchase.
Housing conditions: 5 animals/cage, a 12/12-hour light/dark cycle, a constant temperature of 23±1° C. with humidity at 50 to 60%, ad libitum access to food and water.
After acclimatization, the SD rats were grouped as follows:
(§1) Nine SD rats, weighing 170-190 g, were selected for this study. The mechanical pain threshold was measured using an electronic aesthesiometer. Then an incision pain surgery was performed. During the surgery, after the rats were anesthetized with Zoletil (Zoletil-50, 250 mg, diluted with normal saline to 50 mL after being dissolved, injected at a dose of 2 mL per 200 g of body weight), a 1 cm long incision was made in the middle of the plantar surface of the left hind paw using a No. 10 scalpel blade, cutting through the skin and fascia, and the incision was closed using 3-0 sterile silk sutures. The injured area was disinfected with penicillin, and the animals were returned to their original place to recover overnight. After the overnight recovery, oral gavage administration was performed. Five hours after administration (about 24 h after surgery), the mechanical pain threshold was measured using an electronic aesthesiometer.
Data were recorded using Excel statistical software: The averages were calculated using avg; the SD values were calculated using STDEV; the SEM values were calculated using STDEV/SQRT (the number of animals per group). Plotting was performed using GraphPad Prism software. Statistical analysis of the data was performed using one-way ANOVA and t-test.
Percent increase in threshold (%)=[(Gt−G0)/G0]×100(%), where Gt is the plantar pain threshold of the administration group, and G0 is the plantar pain threshold of the vehicle group.

[2] = Effect on body weight in rat incision pain model; assay type: in vivo, SD rats; conditions: i.g./one dose
Description: as §1
The analgesic efficacy of the compound of Example 16 in the rat incision pain model is shown in FIG. 3 and Table 7, and its effect on body weight is shown in FIG. 4. The analgesic efficacy of the compound of Example 32 in the rat incision pain model is shown in FIG. 5 and Table 7, and its effect on body weight is shown in FIG. 6.

SMILES | Vd ([1]; iv, 1.0 mg/kg) [L/kg] | AUC(0-t) ([1]; iv, 1.0 mg/kg) [ng·h/mL] | half-life ([1]; iv, 1.0 mg/kg) [h] | Cmax ([1]; iv, 1.0 mg/kg) [ng/mL] | bioavailability [1] [%] | AUC(0-t) ([1]; po, i.g., 2.0 mg/kg) [ng·h/mL] | CL/F ([1]; po, i.g., 2.0 mg/kg) [mL/min/kg] | half-life ([1]; po, i.g., 2.0 mg/kg) [h] | Cmax ([1]; po, i.g., 2.0 mg/kg) [ng/mL] | Clearance rate CL/F ([1]; 1.0 mg/kg) [mL/min/kg] | Pain threshold (rat incision pain model; 30 mpk) | Pain threshold (rat incision pain model; 100 mpk) | Pain threshold (rat incision pain model; 200 mpk) | Percent increase in threshold (rat incision pain model; 30 mpk) [%] | Percent increase in threshold (rat incision pain model; 100 mpk) [%] | Percent increase in threshold (rat incision pain model; 200 mpk) [%] | Effect on body weight of rats [2] | Pain threshold (rat incision pain model; 50 mpk) | Percent increase in threshold (rat incision pain model; 50 mpk) [%]
COc1c([C@H]2[C@H](C(=O)Nc3ccnc(/C(N)=N/O)c3)O[C@@](C)(C(F)(F)F)[C@H]2C)ccc(F)c1F [Example 32] | 3.93 | 947 | 3.3 | 616 | 82.6 | 1560 | 21.2 | 3.2 | 260 | 16.1 | 12.0 gf and 12.0 ± 0.9 gf | 22.3 gf and 22.3 ± 1.3 gf | 22.4 gf and 22.4 ± 2.5 gf | 15 | 114 | 114 | did not influence the body weight of rats | – | –
CO/N=C(\N)c1cc(NC(=O)[C@@H]2O[C@@](C)(C(F)(F)F)[C@@H](C)[C@H]2c2ccc(F)c(F)c2OC)ccn1 [Example 16] | 9.97 | 718 | 8.1 | 377 | 87.2 | 1250 | 24.4 | 7.5 | 266 | 21.1 | – | 14.9 gf and 14.9 ± 1.5 gf | 22.3 gf and 22.3 ± 1.8 gf | – | 49 | 122 | did not influence the body weight of rats | 10.8 gf and 10.8 ± 0.5 gf | 7
